Reference: patent publication US4199499A, “Pharmacologically active peptides” (Eli Lilly and Company, priority 1978, dated 1980)

Tested on: mouse
Assay: mouse hot plate test
Type: in vivo
Conditions: 15 minutes after administration, hot plate 52° C.
Description: The compounds of this invention are useful as analgesics. […] In this test, a mouse is placed inside an upright acrylic cylinder comprising, as its base, a hot plate surface which is maintained at 52° C. The mouse is given, by subcutaneous injection, a predetermined amount of test compound dissolved or suspended in a suitable carrier, and, 15 minutes after administration of the test compound, the mouse is placed on the hot plate surface. The latencies in seconds until the occurrence of each of two separate phenomena then are recorded. First the latency until the mouse licks its hind paw is measured, and, secondly, the latency until the mouse jumps from the hot plate surface is measured. […] This must occur in a dose range which produces no motor incoordination or incapacitation. The following Table records the results obtained from this test, reflected in terms of increase over saline control. Each data point was determined using ten treated and ten control mice, and each represents the difference in mean response latency between treated and control animals. The mean control latency for the hind paw lick response was 28.4±0.9 seconds determined from eight groups of ten control mice each. The mean control jump latency was 52.4±3.7 seconds for studies run in the a.m. and 75.9±6.0 seconds for studies run in the p.m. as determined from four groups of ten mice each in the a.m. and four groups of ten mice each in the p.m.

`CSCCC(C)(CO)NC(=O)[C@H](Cc1ccccc1)NC(=O)CNC(=O)[C@@H](C)NC(=O)[C@@H](N)Cc1ccc(O)cc1` (stereo partly drawn) [C, L-Tyrosyl-D-alanyl-glycyl-L-phenylalanyl-D,L-α-methylmethionine carbinol] was tested, and the “Latency, Increase in Seconds over Control, escape jump (EJ)” value (from here on “Latency, Increase in Seconds … (EJ)”) (dose 0.1 mg/kg subcutaneous) was 16.4 s, the “Latency, Increase in Seconds over Control, hind paw lick (HPL)” value (“Latency, Increase in Seconds … (HPL)” for short) (dose 0.1 mg/kg subcutaneous) was -2.6 s and the “Latency, Increase in Seconds … (EJ)” value (dose 0.3 mg/kg subcutaneous) was 47.7 s. The “Latency, Increase in Seconds … (HPL)” value (dose 0.3 mg/kg subcutaneous) was 1.7 s, the “Latency, Increase in Seconds … (EJ)” value (dose 1 mg/kg subcutaneous) was 55.2 s and the “Latency, Increase in Seconds … (HPL)” value (dose 1 mg/kg subcutaneous) was 8.3 s. For the same compound, the “Latency, Increase in Seconds … (EJ)” value (dose 3 mg/kg subcutaneous) was 74.9 s, the “Latency, Increase in Seconds … (HPL)” value (dose 3 mg/kg subcutaneous) was 11.2 s and the “Latency, Increase in Seconds … (EJ)” value (dose 10 mg/kg subcutaneous) was 90.7 s. For the same compound, the “Latency, Increase in Seconds … (HPL)” value (dose 10 mg/kg subcutaneous) was 18.8 s, the “Latency, Increase in Seconds … (EJ)” value (dose 30 mg/kg subcutaneous) was 93.8 s and the “Latency, Increase in Seconds … (HPL)” value (dose 30 mg/kg subcutaneous) was 10.6 s.
